Test results from patent US20210023111A1, “Novel Form of Invermectin and a Process for Making it” (Hovione Scientia Limited, priority 2018, published 2021).

How the values were obtained:
[1] = Water solubility by HPLC, amorphous vs crystalline ivermectin; assay type: physicochemical; conditions: for peak on the HPLC chromatogram (water solubility): LOD of the HPLC method
Description: This confirms that the amorphous form is more water soluble than the known crystalline form.

[2] = Solid-state stability of the amorphous form on storage (XRPD); assay type: physicochemical
Description: By stable we mean that the amorphous form is maintained after a certain period of time under certain environmental conditions. We have data confirming that the product maintains its amorphous form at room temperature for at least 3.5 months.
X-ray diffraction (XRPD) analysis was made with PANalytical Empyrean equipped with copper tube and PIXel1D-Medpix3 detector (Malvern Panalytical, UK).

Row | Substance | water solubility relative to the crystalline form [1] | peak on the HPLC chromatogram (water solubility) ([1]; listed as amorphous form) | amorphous character after storage (XRPD, FIG. 7) ([2]; 3 months in the freezer followed by 3.5 months at room temperature (25° C.)) | time for which the product maintains its amorphous form ([2]; room temperature) | peak on the HPLC chromatogram (water solubility) [1]
1 | ivermectin [amorphous ivermectin] | higher than its corresponding crystalline form | small, but visible peak | amorphous character is maintained | at least 3.5 months | 
2 | ivermectin [known crystalline form, reference compound] |  |  |  |  | no visible peak
